Laboratory results reported in patent US20240366602A1, “COMBINATION THERAPY OF APELIN RECEPTOR AGONIST AND GLP-1 RECEPTOR AGONIST FOR TREATING A DISEASE OR CONDITION ASSOCIATED WITH WEIGHT GAIN” (BioAge Labs, Inc., priority 2023, published 2024).
“Also recorded” adds a separate entry of the source.

Columns and labels:
aged mice [1] = details: aged mice (24-month-old) vs age-matched controls, cited from earlier work
[2] = 14-day IV toxicity study in the rat; type: in vivo
Experimental: (§1) The updated exposure margins considering the highest maximum exposures in rats and dogs are calculated as follows: • Maximum exposure in the rat (male) was in the 14-day IV study and at the 300 mg/kg dose, the AUClast is 1070 μg*hr/mL. • Maximum exposure in dogs occurred at the 300 mg/kg dose in the 9-month oral toxicity study and the AUClast is 1310*μg·hr/mL.

healthy adult subjects [3] = experiment: Phase 1 Part A (SAD) safety and tolerability; type: in vivo, human
Experimental: (§2) After a baseline period of 24 hours in the clinic, all subjects receive a LD, 1-hour infusion on Day 1. After a 48-hour wash-out period, in which PK and PK/PD data iscollected, subjects receive a 23-hour infusion (1-hour LD followed by a 22-hour maintenance dose). See FIG. 45 for the different dose levels in each SAD cohort. See e.g., Table 33 below. Part A is double-blinded. The cohorts of Part A is conducted sequentially starting with SAD cohort 1.
On Day 1 for Part A, subjects receive LD, 1-hour infusion. On Day 3, after a 48-hour washout period, subjects then receive a 23-hour infusion (1-hour LD followed by a 22-hour MD). No earlier than 24 hours after the end of infusion, subjects is discharged from the clinic on Day 5 (End of Treatment Period [EOTP]). A treatment protocol for the SAD cohorts of Part A is described below: • a. Predose assessments (vital signs and PK assessments) should be done within 30 min of the start of infusion. • b. Vital signs include diastolic and systolic blood pressure and pulse. In addition, temperature and respiratory rate should be collected on predose Day 1 and EOT Day 5. • c. […] AEs was recorded from the start time of the first BGE-105 or placebo study drug infusion until the end of the subject's participation in the study. […]
(§3) The Safety Analysis Set is used for safety analysis. Subjects is analyzed based on the actual treatment received.

[4] = system: healthy volunteers aged≥65 years; experiment: Phase 1b Part B (MD) safety; type: in vivo, human
Experimental: as §3
The double-blind, placebo-controlled clinical trial evaluated the safety and pharmacodynamics of BGE-105.

healthy adult subjects [5] = experiment: Phase 1 Part A (SAD) insulin resistance (HOMA-IR); type: in vivo, human; details: SAD cohorts 1, 2, 3; Day 3 Predose and Day 4 visits; largest decrease in cohort 3
Experimental: (§4) In Part A, of 24 subjects enrolled (3 SAD cohorts, 8 subjects each), a total of at least 12 subjects are ≥65 years of age (≥4 subjects in each cohort). The remaining subjects are ≥18 years old.
Biomarkers including, but not limited to changes in: • Plasma glucose • Plasma insulin • Insulin resistance (HOMA-IR)
as §2
Blood samples (4 mL) for plasma insulin and glucose monitoring are collected in the morning, before breakfast and after fasting overnight at timepoints described previously.
Data is analyzed as change from baseline within each dose cohort and treatment group. Treatment comparisons are made as a linear contrast of all treated compared to all placebo and for each individual dose cohort versus all placebo based on time-matched samples acquired during the 24-hour period on Day −1. P-values are reported uncorrected for multiplicity.

[6] = 9-month oral toxicity study in dogs; type: in vivo; details: dog
Experimental: as §1

aged mice [7] = details: aged mice (18-month-old) first injected with a cardiotoxin; cited from earlier work
[8] = Phase 1 study BGE-105-101 Part A (SAD) pharmacokinetics after IV infusion; type: in vivo, human; details: for Dose-normalized AUCinf / Dose-normalized Cmax: Mean, unit assumed
Experimental: as §4, §2
On Day 1 for Part A, subjects receive LD, 1-hour infusion. On Day 3, after a 48-hour washout period, subjects then receive a 23-hour infusion (1-hour LD followed by a 22-hour MD). No earlier than 24 hours after the end of infusion, subjects is discharged from the clinic on Day 5 (End of Treatment Period [EOTP]). A treatment protocol for the SAD cohorts of Part A is described below: • a. Predose assessments (vital signs and PK assessments) should be done within 30 min of the start of infusion. • b. Vital signs include diastolic and systolic blood pressure and pulse. In addition, temperature and respiratory rate should be collected on predose Day 1 and EOT Day 5. • c. Safety laboratory tests include complete blood count, clinical chemistries, and urinalysis. • d. Assessments should be done within 1 hour after the end of the LD infusions on Day 1 and Day 3. • e. AEs was recorded from the start time of the first BGE-105 or placebo study drug infusion until the end of the subject's participation in the study. At discharge from the unit, any ongoing AEs was documented in source and in EDC be followed until the event is resolved or stabilized. Any new AEs occurring after discharge will clearly note the start date and end date. • f. Study drug was administered via IV infusion as a LD, 1-hour infusion on Day 1. After a 48-hour wash-out, study drug will then be administered as a 23-hour infusion (1-hour LD followed by a 22-hour MD). • g. Continuous cardiac ECG telemetry monitoring was used, continuing through the end of dosing on Day 4. • h. Blood samples for plasma insulin and glucose monitoring should be collected in the morning, before breakfast and after fasting overnight. • i. Assessments can be done any time after 24 hours after the end of infusion and before discharge.
Relevant plasma PK parameters are derived for BGE-105 by standard noncompartmental methods and tabulated along with descriptive statistics and graphs.

For `COc1cccc(OC)c1-n1c(NS(=O)(=O)[C@@H](C)[C@H](C)c2ncc(C)cn2)nnc1-c1cncc(C)c1` [BGE-105, (2S,3R)—N-(4-(2,6-dimethoxyphenyl)-5-(5-methyl-3-pyridinyl)-4H-1,2,4-triazol-3-yl)-3-(5-methyl-2-pyrimidinyl)-2-butanesulfonamide], the Voluntary motor activity (aged mice [1]; p=0.00228) is given as “statistically significant increase in voluntary motor activity”, the Grip strength (aged mice [1]; p=0.04) is given as “statistically significant improvement in grip strength” and the NOAEL [2] is given as “maximum dose tested”. For the same compound, the Serious adverse events (healthy adult subjects [3]; SAD cohorts Part A) was “no serious adverse events”, the Tolerability (healthy adult subjects [3]; SAD cohorts, all doses including 240 mg/1440 mg) was “well tolerated” and the Tolerability ([4]; Part B study) was “well tolerated”. The Serious adverse effects ([4]; volunteers≥65 years old, 10 days of bed rest) was “no serious adverse effects”, the “Percent change from baseline in HOMA-IR” value (healthy adult subjects [5]) was “decrease in the percent change from baseline in HOMA-IR” and the NOAEL [6] was “maximum dose tested”. The “mRNA transcripts indicative of muscle regeneration” value (aged mice [7]) was “significantly higher levels of several mRNA transcripts which are indicative of muscle regeneration”, the “Dose proportionality of Cmax and AUC” value ([8]; 3 SAD cohorts, 95% confidence interval for slope includes 1) was “demonstrated dose proportionality; also recorded: linear across the dose range” and the Dose-normalized AUCinf ([8]; SAD1 (60 mg/360 mg) Day 1) was 0.66 µg·h/mL/mg. It also gave a Dose-normalized Cmax ([8]; SAD1 (60 mg/360 mg) Day 1) of 0.12 µg/mL/mg, a Dose-normalized AUCinf ([8]; SAD2 (120 mg/720 mg) Day 1) of 0.49 µg·h/mL/mg and a Dose-normalized Cmax ([8]; SAD2 (120 mg/720 mg) Day 1) of 0.11 µg/mL/mg. It also gave a Dose-normalized AUCinf ([8]; SAD3 (240 mg/1440 mg) Day 1) of 0.5 µg·h/mL/mg and a Dose-normalized Cmax ([8]; SAD3 (240 mg/1440 mg) Day 1) of 0.11 µg/mL/mg.
